Patent US20250382631A1, “PROTAC-CID SYSTEMS FOR USE IN MULTIPLEX GENE REGULATION” (William Marsh Rice University, priority 2022, published 2025)
pEC50: −log10 of the molar value. Like-named read-outs stand apart in the source and are kept apart here.

Experiments:
[1] = PROTAC-CID inducible EYFP gene activation, flow cytometry; format: cell-based, human; settings: Homo sapiens, HEK-293T, FIG. 13A
Protocol: (§1) Fluorescence assay using flow cytometry analysis. Cells were treated with 0.05% Trpsin EDTA (Thermo Fisher Scientific no. 25300054) or TrypLE (Thermo Fisher Scientific no. 12605028) after transfection and centrifuged at 3000 g for 5 min. Supernatant was removed and the cell pellet was resuspended with 200 μL phosphate buffered saline (PBS) without calcium and magnesium (Thermo Fisher Scientific no. 10010023). Cells were transferred into 12×75 mm flow tubes (Global Scientific no. 110410). Cells were analyzed by MA900 flow cytometry (SONY). 405 nm laser (FL6 filter) was used for testing the BFP channel. 488 nm (FL1 filter) was used for testing the EYFP and GFP channel. Automated alignment using Automatic Setup Beads kit (SONY no. LE-B3001) is performed before running samples. In FIGS. 3A, 3B, and 17, experiments were performed under 2% FSC, 17% BSC, 24% FL1. In FIG. 18, experiments were performed under 2% FSC, 17% BSC, 27% FL1. All the other experiments were performed under 2% FSC, 17% BSC, 24% FL1 and 27% FL6. Flow cytometry data was processed and analyzed by FlowJo 10. Events were first gated with forward scatter-Area (FSC-A) and side scatter-Area (SSC-A) to select viable cells and remove the debris and dead cells. Cells were further gated with FSC-A and FSC-Height (FSC-H) for selecting single cells. The mean intensity of the reporter fluorescent protein (BFP and EYFP) in viable and single cell populations were calculated by FlowJo 10 as the mean of FL6-A and FL1-A. When calculating the fold change of relative fluorescence units (RFU), the relative fluorescence units of EYFP was calculated by dividing the mean of fluorescence intensity of EYFP with the mean of BFP fluorescence intensity for normalization as the following formula: […]
(§2) Next, the mean of the normalized relative fluorescence units of induced group were divided by the value of control group for calculating the fold change as the following formula: […]
(§3) Transfection and microscopy. HEK293T cells (American Type Culture Collection, no. CRL-3216) were cultured with high-glucose Dulbecco's modified Eagle's medium (DMEM) (Thermo Fisher Scientific no. 10569044) with 10% fetal bovine serum (FBS) (Thermo Fisher Scientific no. 10437028) and 1×penicillin-streptomycin (Thermo Fisher Scientific no. 15140122) at 37° C. with 5% CO2. Except for the data in FIGS. 3C, 3E, and 3H, cells were plated into 96 well plate (Corning no. 3598) and transfected by Polyethyleneimine Max (PEI Max) (Polysciences no. 24765-1). 1.5 μL PEI Max (1 mg/mL, pH=7.1) and 100 μl DMEM were mixed with plasmids to be slowly dropped into the cell medium after 30 mins of incubation. Medium was changed 12 hours post-transfection. The inductive small molecules, including Rapamycin (STEM CELL technologies no. 73362), dTAG-13 (TOCRIS no. 6605/5), dTAG^V-1 (TOCRIS no. 6744-5), dBRD9 (TOCRIS no. 6606/5), dTRIM24 (TOCRIS no. 6607/5), MZ1 (TOCRIS no. 6154/5), AT1 (TOCRIS no. 6356/5), TL13-12 (TOCRIS no. 6744/5), TL13-112 (TOCRIS no. 6745/5), dTAG-7 (TOCRIS no. 69125), ZXH3-26 (TOCRIS no. 6713/5) and ABA (GoldBio no. A-050-100), dissolved in Dimethyl sulfoxide (DMSO) (Sigma, no. D8418) were added. For the microscopy observation, the images were taken by Microscopy EVOS (Life Technologies) and processed by ImageJ (Schneider et al., 2012). If not otherwise noted, 60 ng of each plasmid were used for each sample.
(§4) Step-by-step fluorescence protein activation assay protocol. Reagents: • 1. PEI Max (Polysciences no. 24765-1) • 2. DMEM, high glucose, GlutaMAX™ Supplement, pyruvate (Thermo Fisher Scientific no. 10569044) • 3. Penicillin-Streptomycin (10,000 U/mL) (Thermo Fisher Scientific no. 15140122) • 4. Fetal Bovine Serum 500ML (FBS) (Thermo Fisher Scientific no. 10437028) • 5. TrypLE™ Express Enzyme (1×), phenol red (Thermo Fisher Scientific no. 12605068) • 6. PBS pH=7.4 (Thermo Fisher Scientific no. 10010023) • 7. Sony sorting chip […] for MA900 (SONY no. LE-C3210) • 8. Automatic Setup Beads kit (SONY no. LE-B3001) • 9. […]

[2] = test system: pUAS-1-driven EYFP expression in HEK293T cells transfected with GAL4- and VPR-fused PROTAC target protein / E3 ubiquitin ligase; assay: as above; format: cell-based, human
Protocol: as §1, §2, §3, §4

[3] = test system: isABE system (FRB / FKBP3 fused split ABE8e), EYFP reporter in HEK293T cells; assay: isABE split adenine base editor, EYFP stop-codon reporter dose response; format: cell-based; settings: Homo sapiens, HEK-293T; different doses of Rapamycin, FIG. 5J
Text: For rapid exploration of inducible ABE variants, the inventors first sought to develop a rapid fluorescence-based reporter system to quantify the ABE efficiency as reported before. The inventors selected target region in eyfp gene with NGG PAM where a CAG codon within the editing window was mutated to TAG stop codon. ABEs convert A to G or T to C, thus allowing the conversion of stop codon to CAG following gRNA binding to untemplated strand. Additionally, there is no other bystander A in the editing window that would cause complex editing to affect the fluorescence expression. The inventors observed a high restoration of the EYFP fluorescence when transfecting HEK293T cells with plasmids encoding the ABE8e fused SpCas9 and guide RNA (FIGS. 5A and 5B). Next, the target range of base editors was restricted by the PAM where the prototypical SpCas9 recognizing target sites with NGG PAM (where N is A, C, G or T). A variant named SpG was identified with an expanded set of NGN PAM. […]
To develop a split adenosine base editor system, the inventors identified two potential split regions based on the crystal structure of ABE8e base editor in complex with guide RNA and target DNA. […] In addition, moderate levels of eYFP signal were detected in both sites. […]

[4] = Table 4 nonlinear regression of EYFP activation, FIG. 13A
[5] = Table 4 nonlinear regression, FIG. 13A

With `CO[C@H]1C[C@@H]2CC[C@@H](C)[C@@](O)(O2)C(=O)C(=O)N2CCCC[C@H]2C(=O)O[C@H]([C@H](C)C[C@@H]2CC[C@@H](O)[C@H](OC)C2)CC(=O)[C@H](C)/C=C(\C)[C@@H](O)[C@@H](OC)C(=O)[C@H](C)C[C@H](C)/C=C/C=C/C=C/1C` [Rapamycin] the EC50 ([1]; Table 4 nonlinear regression, Prism 9 [Agonist] vs. response variable slope (four parameters), no unit in table (the source gives nM), read-out: EC50 (best-fit value)) was 6.32 nM, the pEC50 ([1]; dose-response, read-out: EC50 for gene activation) was 8.22 and the “Bottom (best-fit value)” value [2, 4] was 6.692. The “Span (best-fit value)” value [2, 4] was 483.9, the “Top (best-fit value)” value [2, 4] was 490.6 and the “Hillslope (best-fit value)” value [2, 5] was 1.871. For the same molecule, the “logEC50 (best-fit value)” value [2, 5] was 0.8008, the “rapamycin-based gene activation (EYFP)” value ([2]; using FRB and FKBP12, FIG. 1B) was 355 fold and the pEC50 [3] was 8.74.
